Each compound was assayed against T1, His-hSHIP1 enzyme (Homo sapiens, UniProt Q92835) (assay: His-hSHIP1 activity, approach 1 (phosphate release from IP4, Biomol Green)). Conditions: activation of His-hSHIP1; IP4 50 μM; test compound 0-300 μM; no asterisk in Table 2.
T1 construct: His
T1 sequence (Q92835 1-1189): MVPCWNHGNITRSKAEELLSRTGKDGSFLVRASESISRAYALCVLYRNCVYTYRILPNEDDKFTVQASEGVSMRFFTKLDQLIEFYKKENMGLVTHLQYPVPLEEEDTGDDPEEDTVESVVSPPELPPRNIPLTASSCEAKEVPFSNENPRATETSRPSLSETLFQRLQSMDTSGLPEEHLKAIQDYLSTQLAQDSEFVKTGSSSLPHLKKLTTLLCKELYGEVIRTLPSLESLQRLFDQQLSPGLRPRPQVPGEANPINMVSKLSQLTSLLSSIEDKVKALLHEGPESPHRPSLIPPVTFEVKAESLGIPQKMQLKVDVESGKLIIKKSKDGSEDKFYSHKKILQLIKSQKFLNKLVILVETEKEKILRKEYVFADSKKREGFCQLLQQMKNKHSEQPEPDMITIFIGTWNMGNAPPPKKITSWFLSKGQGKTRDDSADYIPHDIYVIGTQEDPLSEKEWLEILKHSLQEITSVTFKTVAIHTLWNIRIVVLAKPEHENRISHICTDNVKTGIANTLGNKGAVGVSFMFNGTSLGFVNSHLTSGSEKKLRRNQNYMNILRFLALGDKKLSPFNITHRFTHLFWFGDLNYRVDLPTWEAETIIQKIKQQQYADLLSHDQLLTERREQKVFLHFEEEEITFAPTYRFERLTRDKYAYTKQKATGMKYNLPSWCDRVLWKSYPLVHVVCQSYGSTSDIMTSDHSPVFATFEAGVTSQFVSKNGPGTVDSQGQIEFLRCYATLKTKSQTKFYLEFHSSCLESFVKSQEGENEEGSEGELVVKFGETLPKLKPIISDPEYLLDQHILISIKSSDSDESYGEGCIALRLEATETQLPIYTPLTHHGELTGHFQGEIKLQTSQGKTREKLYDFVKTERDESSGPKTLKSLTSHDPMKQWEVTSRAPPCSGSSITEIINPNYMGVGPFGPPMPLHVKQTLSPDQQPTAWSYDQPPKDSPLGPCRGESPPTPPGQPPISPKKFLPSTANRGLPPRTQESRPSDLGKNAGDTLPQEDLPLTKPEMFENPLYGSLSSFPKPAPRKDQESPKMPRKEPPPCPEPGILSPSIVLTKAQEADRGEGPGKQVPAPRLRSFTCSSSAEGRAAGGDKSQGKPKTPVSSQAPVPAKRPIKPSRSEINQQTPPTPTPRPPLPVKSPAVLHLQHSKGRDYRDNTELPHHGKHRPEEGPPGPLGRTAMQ
Format: biochemical
Description: (§1) Test compounds are dissolved in 95% ethanol to form stock solutions. Before screening, the stock solutions are diluted with Phosphatase Assay Buffer (20 mM Tris-HCL, 10 mM MgCl2 pH 7.5, 0.02% Tween 20) to form working assay solutions that contain 10% ethanol. The assay is carried out on 96-well microtiter plates using a modified procedure of that reported by Ong et al., Blood 110, 1942-1949, 2007 and Yang et al., Org Lett 7, 1073-1076, 2005, both of which references are incorporated herein by reference in their entirety.
Data were generated by one of two variant methods. Test compounds are screened by one of two approaches described as follows. In the first approach, each reaction contains 5 μL of His-hSHIP1 enzyme (5-20 ng), 10 μL of the substrate, 1,3,4,5-inositol tetrakisphosphate (IP4; 50 μM final), 5 μL of Phosphatase Assay Buffer, and 5 µL of test compound at various concentrations in 10% ethanol (0-300 μM final). Control blanks are also prepared by replacing His-hSHIP1 enzyme, IP4, or test compounds with Phosphatase Assay Buffer. After adding the reaction components in a 96-well microtiter plate on ice, the reaction is mixed by briefly shaking the plate vigorously. The reaction is then incubated at 37° C. for 15 min with gentle shaking followed by addition of 100 μL of Biomol Green Reagent (BIOMOL, Pa., USA) to terminate the reaction. The free phosphate released from IP4 by His-hSHIP1 binds to the Biomol Green Reagent, which turns the dye to green color. After incubating the mixture for 20 min at room temperature for color development, the absorbance is read with SpectraMax Plus 96-well plate reader (Molecular Devices, Sunnyvale, Calif., USA) at a wavelength of 650 nm.
`COc1cc(OC)cc(C(=O)[C@H]2[C@H](C)[C@H](N)C[C@H]3C(C)(C)CCC[C@]23C)c1` [Compound No. 55, (2R,3S,4S,4aS,8aS)-4-[(3,5-dimethoxyphenyl)carbonyl]-3,4a,8,8-tetramethyl-decahydronaphthalen-2-amine] was tested, and the “Scoring, Approach 1 (% increase relative to background)” value was “+ (0 < x < 50)”. In the case of `C[C@@H]1[C@H](N)C[C@H]2C(C)(C)CCC[C@]2(C)[C@H]1C(=O)c1cc(O)cc(O)c1` [Compound No. 56, 5-{[(1S,2S,3R,4aS,8aS)-3-amino-2,5,5,8a-tetramethyl-decahydronaphthalen-1-yl]carbonyl}benzene-1,3-diol], the “Scoring, Approach 1 (% increase relative to background)” value is reported as “+ (0 < x < 50)”. `C[C@H]1CC[C@H]2C(C)(C)CCC[C@]2(C)[C@H]1CCc1cc(O)cc(O)c1` [Compound No. 62, 5-{2-[(1S,2S,4aS,8aR)-2,5,5,8a-tetramethyl-decahydronaphthalen-1-yl]ethyl}benzene-1,3-diol] was tested, and the “Scoring, Approach 1 (% increase relative to background)” value was “+++ (x ≥65)”. For `Cc1cc(O)cc(C(=O)[C@H]2[C@H](C)C(C(N)=O)C[C@H]3C(C)(C)CCC[C@]23C)c1` (stereo partly drawn) [Compound No. 65, (3S,4S,4aS,8aS)-4-[(3-hydroxy-5-methylphenyl)carbonyl]-3,4a,8,8-tetramethyl-decahydronaphthalene-2-carboxamide], the “Scoring, Approach 1 (% increase relative to background)” value was “+++ (x ≥65)”.

The compounds below were run against T1, His-hSHIP1 enzyme (assay: His-hSHIP1 activity, approach 2 (ratio of initial velocities IP4 25/IP4 250)). Conditions: ratio of initial velocities IP4 25/IP4 250 versus reference SHIP1 activator; asterisk in Table 2.
Format: biochemical
Set-up: key: +++: higher than reference or reference - 15%; ++: reference - 16% to reference - 30%; +: reference - 31% or lower
Description: as §1
In the second approach, a master mix is prepared that contains […] (0.4-1.6 ng/μL final), 25 μL of the substrate, IP4 (25 or 250 μM final), and 50 μL of test compound in 3.3% ethanol ([…]). Control blanks are also prepared by replacing His-hSHIP1 enzyme, IP4, or test compounds with Phosphate Assay Buffer. […] Each reaction component is preincubated at 37° C. for 30 min before adding to a 96-well microtiter plate. The master mix is then incubated at 37° C. At time 0, 20, 25 and 30 min, 25 μL of the master mix is removed and transferred to a new 96-well microtiter plate, to which 100 μL of Biomol Green Reagent is added to stop the reaction. After incubating the mixture for 20 min at room temperature for color development, the absorbance is read with SpectraMax Plus 96-well plate reader at a wavelength of 650 nm. Phosphate released is plotted against time to calculate the initial velocities (i.e., slope of the graph) at each IP4 concentration. The initial velocities are baseline corrected and the ratio of initial velocities (IP425/IP4250) is calculated and used to rate the test compounds.
In the case of `COc1cc(OC)cc(C(O)[C@@H]2[C@@]3(C)CCCC(C)(C)[C@@H]3CC[C@@]2(C)O)c1` (stereo partly drawn) [Compound No. 49, (1S,2R,4aS,8aS)-1-[(3,5-dimethoxyphenyl)(hydroxy)methyl]-2,5,5,8a-tetramethyl-decahydronaphthalen-2-ol], the “Scoring, Approach 2 (Initial velocity Ratio)” value is reported as “+++”. With `C[C@@H]1[C@H](NC(=O)Nc2cccnc2)C[C@H]2C(C)(C)CCC[C@]2(C)[C@H]1C(=O)c1cc(O)cc(O)c1` [Compound No. 118, 3-[(2R,3S,4S,4aS,8aS)-4-[(3,5-dihydroxyphenyl)carbonyl]-3,4a,8,8-tetramethyl-decahydronaphthalen-2-yl]-1-(pyridin-3-yl)urea] the “Scoring, Approach 2 (Initial velocity Ratio)” value was “+++”. `C[C@@H]1[C@H](NCc2cnc[nH]2)C[C@H]2C(C)(C)CCC[C@]2(C)[C@H]1C(=O)c1cc(O)cc(O)c1` [Compound No. 119, 5-{[(1S,2S,3R,4aS,8aS)-3-[(1H-imidazol-5-ylmethyl)amino]-2,5,5,8a-tetramethyl-decahydronaphthalen-1-yl]carbonyl}benzene-1,3-diol] was tested, and the “Scoring, Approach 2 (Initial velocity Ratio)” value was “++”. With `Cc1cc(O)cc(C(=O)[C@H]2[C@H](C)[C@H](N)C[C@H]3C(C)(C)CCC[C@]23C)c1` [Compound No. 136, 3-{[(1S,2S,3R,4aS,8aS)-3-amino-2,5,5,8a-tetramethyl-decahydronaphthalen-1-yl]carbonyl}-5-methylphenol] the “Scoring, Approach 2 (Initial velocity Ratio)” value was “++”. `Cc1cc(O)cc(C(=O)[C@H]2[C@H](C)[C@H](NCc3cnc[nH]3)C[C@H]3C(C)(C)CCC[C@]23C)c1` [Compound No. 137, 3-{[(1S,2S,3R,4aS,8aS)-3-[(1H-imidazol-5-ylmethyl)amino]-2,5,5,8a-tetramethyl-decahydronaphthalen-1-yl]carbonyl}-5-methylphenol] was tested, and the “Scoring, Approach 2 (Initial velocity Ratio)” value was “++”. In the case of `Cc1cc(O)cc(C(=O)[C@H]2[C@H](C)[C@H](NC(=O)Nc3cccnc3)C[C@H]3C(C)(C)CCC[C@]23C)c1` [Compound No. 138, 3-[(2R,3S,4S,4aS,8aS)-4-[(3-hydroxy-5-methylphenyl)carbonyl]-3,4a,8,8-tetramethyl-decahydronaphthalen-2-yl]-1-(pyridin-3-yl)urea], the “Scoring, Approach 2 (Initial velocity Ratio)” value is reported as “++”. With `CC(=O)N[C@@H]1C[C@H]2C(C)(C)CCC[C@]2(C)[C@@H](C(=O)c2cc(C)cc(O)c2)[C@@H]1C` [Compound No. 139, N-[(2R,3S,4S,4aS,8aS)-4-[(3-hydroxy-5-methylphenyl)carbonyl]-3,4a,8,8-tetramethyl-decahydronaphthalen-2-yl]acetamide] the “Scoring, Approach 2 (Initial velocity Ratio)” value was “++”. For `C=C1[C@H](C(=O)c2cc(OC)cc(OC)c2)[C@@]2(C)CCCC(C)(C)[C@@H]2C[C@H]1O` [Compound No. 141, (2R,4R,4aS,8aS)-4-[(3,5-dimethoxyphenyl)carbonyl]-4a,8,8-trimethyl-3-methylidene-decahydronaphthalen-2-ol], the “Scoring, Approach 2 (Initial velocity Ratio)” value was “+”. For `COc1cc(OC)cc(C(=O)C2=C(C)[C@H](O)C[C@H]3C(C)(C)CCC[C@]23C)c1` [Compound No. 142, (2R,4aS,8aS)-4-[(3,5-dimethoxyphenyl)carbonyl]-3,4a,8,8-tetramethyl-1,2,4a,5,6,7,8,8a-octahydronaphthalen-2-ol], the “Scoring, Approach 2 (Initial velocity Ratio)” value was “++”. In the case of `C[C@H]1CC[C@H]2C(C)(C)CCC[C@]2(C)[C@H]1CC(=O)Nc1cc(O)cc(O)c1` [Compound No. 149, 2-[(1S,2S,4aS,8aR)-2,5,5,8a-tetramethyl-decahydronaphthalen-1-yl]-N-(3,5-dihydroxyphenyl)acetamide], the “Scoring, Approach 2 (Initial velocity Ratio)” value is reported as “++”. With `CC1(C)CCC[C@]2(C)[C@@H](Cc3cc(O)cc(O)c3)[C@@H](C(=O)O)CC[C@@H]12` [Compound No. 157, (1S,2S,4aS,8aR)-1-[(3,5-dihydroxyphenyl)methyl]-5,5,8a-trimethyl-decahydronaphthalene-2-carboxylic acid] the “Scoring, Approach 2 (Initial velocity Ratio)” value was “++”. With `COc1cc(OC)cc(S(=O)(=O)C[C@H]2C(C)C(O)C[C@H]3C(C)(C)CCC[C@]23C)c1` (stereo partly drawn) [Compound No. 173, (4S,4aS,8aS)-4-{[(3,5-dimethoxybenzene)sulfonyl]methyl}-3,4a,8,8-tetramethyl-decahydronaphthalen-2-ol] the “Scoring, Approach 2 (Initial velocity Ratio)” value was “+++”. For `Cc1cc(O)cc(C(=O)[C@H]2[C@H](C)[C@H](NC(=N)N)C[C@H]3C(C)(C)CCC[C@]23C)c1` [Compound No. 175, 1-[(2R,3S,4S,4aS,8aS)-4-[(3-hydroxy-5-methylphenyl)carbonyl]-3,4a,8,8-tetramethyl-decahydronaphthalen-2-yl]guanidine], the “Scoring, Approach 2 (Initial velocity Ratio)” value was “++”.
